The source made the active and inactive calls.
What was measured:
Bcl-2-like protein 10 = target: T1, Bcl-2-like protein 10 (Homo sapiens, UniProt Q9HD36); test: Concentration-response of Bcl-B inhibitors by biochemical FP with TR3 (AID 1243); format: functional
T1 sequence (Q9HD36 whole entry): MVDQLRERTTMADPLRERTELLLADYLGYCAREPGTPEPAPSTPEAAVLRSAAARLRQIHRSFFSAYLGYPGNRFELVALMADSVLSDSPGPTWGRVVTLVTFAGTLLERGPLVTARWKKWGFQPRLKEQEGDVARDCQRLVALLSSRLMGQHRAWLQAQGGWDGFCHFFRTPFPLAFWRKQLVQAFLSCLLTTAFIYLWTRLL

[1] = viability of uninfected HEp-2 cells – cell-based, HTS, cytotoxicity control for RSV inhibitor project, dose response (AID 2410); format: functional; conditions: human respiratory syncytial virus
[2] = Luminescence-based counterscreen assay for KLF5 inhibitors: dose response cell-based high throughput screening assay to identify cytotoxic compounds using the IEC-6 intestinal epithelial cell line. [Related pubchem assays: 1700 (Primary screen.), 1834 (Confirmation screen.), 1858 (Summary AID.), 1905 (Counterscreen.)]; format: functional
[3] = target: Glucose-6-phosphate 1-dehydrogenase (Homo sapiens, UniProt P11413); test: inhibition of Homo sapiens G6PD, dose series – biochemical, fluorescence, selectivity assay for P. falciparum G6PD inhibitor project, dose response (AID 504792); format: functional
Chain of Glucose-6-phosphate 1-dehydrogenase (P11413 whole entry): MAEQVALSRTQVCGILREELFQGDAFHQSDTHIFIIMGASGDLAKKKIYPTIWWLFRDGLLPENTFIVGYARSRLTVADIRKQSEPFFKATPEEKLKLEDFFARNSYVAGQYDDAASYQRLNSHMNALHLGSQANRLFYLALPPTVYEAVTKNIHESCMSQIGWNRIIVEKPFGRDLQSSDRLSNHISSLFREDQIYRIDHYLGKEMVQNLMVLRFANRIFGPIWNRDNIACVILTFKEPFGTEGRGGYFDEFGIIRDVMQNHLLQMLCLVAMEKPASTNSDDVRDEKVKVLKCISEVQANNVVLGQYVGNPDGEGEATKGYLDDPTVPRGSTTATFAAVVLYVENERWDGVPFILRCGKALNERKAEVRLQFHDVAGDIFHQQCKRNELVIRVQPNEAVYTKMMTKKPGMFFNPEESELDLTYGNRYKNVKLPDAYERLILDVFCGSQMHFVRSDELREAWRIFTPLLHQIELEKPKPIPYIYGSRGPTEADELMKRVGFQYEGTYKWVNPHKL

[4] = target: T2, Microphthalmia-associated transcription factor (Homo sapiens, UniProt O75030); test: reducers of TRPM1 reporter luminescence, concentration series – cell-based, SK-MEL-5, cherry-picked, set 3, MITF inhibitor project, dose response (AID 493073); format: functional;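 note: SK-MEL-5 melanoma cells with luciferase driven by the MITF target TRPM1 promoter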
T2 sequence (O75030 whole entry): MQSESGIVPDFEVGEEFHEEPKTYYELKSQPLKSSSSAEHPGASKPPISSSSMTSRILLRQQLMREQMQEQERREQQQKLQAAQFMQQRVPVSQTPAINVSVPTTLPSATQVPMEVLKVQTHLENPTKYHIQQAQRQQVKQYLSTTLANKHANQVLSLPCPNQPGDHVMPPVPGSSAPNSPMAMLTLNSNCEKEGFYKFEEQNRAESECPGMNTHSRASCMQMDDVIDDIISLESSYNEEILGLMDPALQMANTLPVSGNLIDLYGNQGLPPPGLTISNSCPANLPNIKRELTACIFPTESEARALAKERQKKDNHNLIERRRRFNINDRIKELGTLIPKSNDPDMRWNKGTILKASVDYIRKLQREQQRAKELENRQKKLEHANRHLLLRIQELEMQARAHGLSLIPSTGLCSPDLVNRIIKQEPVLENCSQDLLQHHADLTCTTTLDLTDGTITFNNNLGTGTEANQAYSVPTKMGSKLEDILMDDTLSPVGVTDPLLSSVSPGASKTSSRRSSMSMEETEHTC

Vero = test: cells; format: functional; conditions: Chlorocebus sabaeus
[5] = target: T3, Long-chain-fatty-acid--AMP ligase FadD28 (Mycobacterium tuberculosis, UniProt P9WQ59); test: Fluorescence polarization aasay to screen for inhibitors that compete for the binding of FadD28 to a bisubstrate Measured in Biochemical System Using Plate Reader - 2147-01_Inhibitor_Dose_CherryPick_Activity.; format: functional, Mycobacterium tuberculosis H37Rv
T3 sequence (P9WQ59 whole entry): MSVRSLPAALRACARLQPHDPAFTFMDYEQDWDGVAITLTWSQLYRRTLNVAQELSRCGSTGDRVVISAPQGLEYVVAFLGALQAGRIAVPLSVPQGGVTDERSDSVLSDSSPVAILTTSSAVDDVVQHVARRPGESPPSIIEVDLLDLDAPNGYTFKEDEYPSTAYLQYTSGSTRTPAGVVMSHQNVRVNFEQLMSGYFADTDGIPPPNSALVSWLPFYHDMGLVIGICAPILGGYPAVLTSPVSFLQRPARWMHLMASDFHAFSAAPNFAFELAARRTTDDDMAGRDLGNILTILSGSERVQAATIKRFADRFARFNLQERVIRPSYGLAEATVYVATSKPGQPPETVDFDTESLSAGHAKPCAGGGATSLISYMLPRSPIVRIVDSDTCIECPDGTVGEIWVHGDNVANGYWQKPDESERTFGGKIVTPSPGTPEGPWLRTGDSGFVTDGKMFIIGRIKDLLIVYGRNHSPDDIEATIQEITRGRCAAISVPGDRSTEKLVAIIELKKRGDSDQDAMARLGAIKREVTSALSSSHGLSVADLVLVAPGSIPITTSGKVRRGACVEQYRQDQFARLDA

[6] = blockers of HIV-1 envelope-mediated cell-cell fusion – cherry-pick, dose response (AID 652057); format: functional, cell-based
[7] = viability loss in CEM21 cells – cell-based, CellTiter-Glo luminescence, cherry-picked, cytotoxicity control for viral fusion inhibitor project, dose response (AID 652042); format: functional;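 note: potency for signal decrease meaning cytotoxicity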
[8] = blockers of HIV-1 ZM109 envelope-driven cell-cell fusion – HeLa effector, CEM target cells, luciferase, cherry-pick, dose response (AID 652058); format: functional, cell-based;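 note: luciferase signal from HIV-1 Env mediated cell-cell fusion of effector and target cells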
[9] = off-target signal loss in HeLa-CEM21 co-culture – HeLa F-luc CTL cells, cherry-picked, counter-screen for HIV-1 Env fusion inhibitor project, dose response (AID 652040); format: functional, cell-based;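 note: potency for signal decrease marking cytotoxic or nonspecific inhibition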
[10] = HIV-1 AD8 envelope cell-cell fusion blockers – cherry-pick, dose response (AID 652062); format: functional, cell-based;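 note: luciferase signal from cell-cell fusion driven by HIV-1 clade B AD8 Env; potency is for inhibitors of fusion seen as a drop in luminescence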

| Compound | EC50 (Bcl-2-like protein 10) | CC50 [1] | IC50 [2] | IC50 [3] | AC50 [4] | CC50 (Vero) | AC50 [5] | AC50 [6] | AC50 [7] | AC50 [8] | AC50 [9] | AC50 [10] |
| --- | --- | --- | --- | --- | --- | --- | --- | --- | --- | --- | --- | --- |
| Cc1ccc(C)n1-c1ccccc1C(=O)O | 0.62 µM (active) | – | – | – | – | – | – | – | – | – | – | – |
| CC(C)(C)c1ccc(C(=O)Nc2sc3c(c2C(=O)O)CCC3)cc1 | – | 6.97 µM (active) | > 39.8 µM (not active) | > 80 µM (inactive) | 2.09 µM (active) | > 25 µM (active) | > 100 µM (inactive) | 2.21 µM (active) | 66.1 µM (active) | 1.36 µM (active) | 4.43 µM (active) | 0.786 µM (active) |

From ChEMBL document CHEMBL1201862, “PubChem BioAssay data set” (2004)
